Test results: patent US20060069132A1, “Azolecarboxamide herbicides” (priority 2004, published 2006)

Experiments:
bermudagrass = assay: Test E pre-/postemergence herbicide test; assay type: in vivo, Cynodon dactylon
In short: (§1)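 Test chemicals in a non-phytotoxic solvent mixture with surfactant applied preemergence to planted seeds and postemergence to plants 2 to 18 cm tall (1- to 4-leaf stage). After 12 to 14 days in the greenhouse, injury rated visually against untreated controls on a 0–100 scale (0 no effect, 100 complete control).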

green foxtail [1] = assay: Test E pre-/postemergence herbicide test; assay type: in vivo, Setaria viridis
In short: as §1

goosegrass = assay: Test E pre-/postemergence herbicide test; assay type: in vivo, Eleusine indica
In short: as §1

johnsongrass = assay: Test E pre-/postemergence herbicide test; assay type: in vivo, Sorghum halepense
In short: as §1

purple nutsedge = assay: Test E pre-/postemergence herbicide test; assay type: in vivo, Cyperus rotundus
In short: as §1

southern sandbur = assay: Test E pre-/postemergence herbicide test; assay type: in vivo, Cenchrus echinatus
In short: as §1

common sowthistle = assay: Test E pre-/postemergence herbicide test; assay type: in vivo, Sonchus oleraceous
In short: as §1

quackgrass = assay: Test E pre-/postemergence herbicide test; assay type: in vivo, Elytrigia repens
In short: as §1

field bindweed = assay: Test E pre-/postemergence herbicide test; assay type: in vivo, Convolvulus arvensis
In short: as §1

Russian thistle = assay: Test E pre-/postemergence herbicide test; assay type: in vivo, Salsola kali; details: Preemergence
In short: as §1

green foxtail [2] = assay: Test C postemergence herbicide test; assay type: in vivo, Setaria viridis
In short: (§2)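 Postemergence sprays were applied to plants 2 to 18 cm tall (1- to 4-leaf stage); in the flooded paddy test, barnyardgrass was grown to the 2-leaf stage. After 12 to 14 days in a greenhouse, injury was visually rated against untreated controls on a 0–100 scale (100 = complete control).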

wheat = assay: Test C postemergence herbicide test; assay type: in vivo, Triticum aestivum; details: postemergence, scale 0 to 100
In short: as §2

bipinnate beggarticks = assay: Test E pre-/postemergence herbicide test; assay type: in vivo, Bidens bipinnata; details: Preemergence
Text: Seeds of plant species selected from bipinnate beggarticks (Bidens bipinnata L.), hairy beggarticks (Bidens radiata Thuill.), bermudagrass (Cynodon dactylon (L.) Pers.), Surinam grass (Urochloa decumbens (Staph) R. D. Webster, previously named Brachiaria decumbens Stapf), large crabgrass (Digitaria sanguinalis (L.) Scop.), green foxtail (Setaria viridis (L.) P. Beauv.), goosegrass (Eleusine indica (L.) Gaertn.), johnsongrass (Sorghum halepense (L.) Pers.), kochia (Kochia scoparia (L.) Schrad.), pitted morningglory (Ipomoea lacunosa L.), purple nutsedge (Cyperus rotundus L.), common ragweed (Ambrosia elatior L.), mustard (Brassica nigra (L.) W. D. J. Koch), guineagrass (Panicum maximum Jacq.), dallisgrass (Paspalum dilatatum Poir.), barnyardgrass (Echinochloa crus-galli (L). P. Beauv.), southern sandbur (Cenchrus echinatus L.), common sowthistle (Sonchus oleraceous L.), prickly sida (Sida spinosa L.), Italian ryegrass (Lolium multiflorum Lam.), common purslane (Portulaca oleracea L.), broadleaf signalgrass (Brachiaria platyphylla (Griseb.) Nash), common groundsel (Senecio vulgaris L.), common chickweed (Stellaria media (L.) Vill/Cyr.), tropical spiderwort (Commelina benghalensis L.), annual bluegrass (Poa annua L.), downy bromegrass (Bromus tectorum L.), itchgrass (Rottboellia cochinchinensis (L.) L.f.), quackgrass (Elytrigia repens (L.) Nevski), Canada horseweed (Erigeron Canadensis L.), field bindweed (Convolvulus arvensis L.), spotted spurge (Euphorbia maculata L.), common mallow (Malva sylvestris (=s silvestris) L.), and Russian thistle (Salsola kali L. ssp. Ruthenica (Iljin) Soo) were planted and treated preemergence with test chemicals formulated in a non-phytotoxic solvent mixture which included a surfactant.
At the same time, plants selected from these weed species were treated with postemergence applications of some of the test chemicals formulated in the same manner. Plants ranged in height from 2 to 18 cm (1- to 4-leaf stage) for postemergence treatments. Treated plants and controls were maintained in a greenhouse for 12 to 14 days, after which time all species were compared to controls and visually evaluated. Plant response ratings, summarized in Table E, are based on a scale of 0 to 100 where 0 is no effect and 100 is complete control. A dash (-) response means no test result.

[3] = Postemergence, 500 g ai/ha, scale 0 to 100
[4] = Postemergence, 250 g ai/ha, scale 0 to 100
[5] = Preemergence, 62 g ai/ha, scale 0 to 100
[6] = Preemergence, 125 g ai/ha, scale 0 to 100
[7] = Preemergence, 250 g ai/ha, scale 0 (no effect) to 100 (complete control)
[8] = Preemergence, 500 g ai/ha, scale 0 (no effect) to 100 (complete control)
[9] = postemergence, 125 g ai/ha, scale 0 to 100
[10] = postemergence, 62 g ai/ha, scale 0 to 100
[11] = 500 g ai/ha, scale 0 (no effect) to 100 (complete control)
[12] = Preemergence, 375 g ai/ha, scale 0 (no effect) to 100 (complete control)

Compound: CCn1nc(C(C)(C)C)cc1C(=O)Nc1cccc(C(N)=O)n1 [Compound 162, 6-[[[3-(1,1-dimethylethyl)-1-ethyl-1H-pyrazol-5-yl]carbonyl]amino]-2-pyridinecarboxamide]
- Plant response rating, Bermudagrass (bermudagrass; [3]): 80
- Plant response rating, Bermudagrass (bermudagrass; [4]): 70
- Plant response rating, Bermudagrass (bermudagrass; [5]): 70
- Plant response rating, Bermudagrass (bermudagrass; [6]): 80
- Plant response rating, Bermudagrass (bermudagrass; [7]): 90
- Plant response rating, Bermudagrass (bermudagrass; [8]): 100
- Plant response rating, Bermudagrass (bermudagrass; [9]): 30
- Plant response rating, Bermudagrass (bermudagrass; [10]): 0
- Plant response rating, Foxtail, Green (green foxtail [1]; [3]): 95
- Plant response rating, Foxtail, Green (green foxtail [1]; [4]): 85
- Plant response rating, Foxtail, Green (green foxtail [1]; [5]): 30
- Plant response rating, Foxtail, Green (green foxtail [1]; [6]): 85
- Plant response rating, Foxtail, Green (green foxtail [1]; [7]): 100
- Plant response rating, Foxtail, Green (green foxtail [1]; [8]): 100
- Plant response rating, Foxtail, Green (green foxtail [1]; [9]): 50
- Plant response rating, Foxtail, Green (green foxtail [1]; [10]): 30
- Plant response rating, Goosegrass (goosegrass; [3]): 98
- Plant response rating, Goosegrass (goosegrass; [4]): 95
- Plant response rating, Goosegrass (goosegrass; [5]): 60
- Plant response rating, Goosegrass (goosegrass; [6]): 90
- Plant response rating, Goosegrass (goosegrass; [7]): 95
- Plant response rating, Goosegrass (goosegrass; [8]): 95
- Plant response rating, Goosegrass (goosegrass; [9]): 80
- Plant response rating, Goosegrass (goosegrass; [10]): 50
- Plant response rating, Johnsongrass (johnsongrass; [3]): 100
- Plant response rating, Johnsongrass (johnsongrass; [4]): 100
- Plant response rating, Johnsongrass (johnsongrass; [5]): 60
- Plant response rating, Johnsongrass (johnsongrass; [6]): 100
- Plant response rating, Johnsongrass (johnsongrass; [7]): 100
- Plant response rating, Johnsongrass (johnsongrass; [8]): 100
- Plant response rating, Johnsongrass (johnsongrass; [9]): 80
- Plant response rating, Johnsongrass (johnsongrass; [10]): 65
- Plant response rating, Nutsedge, Purple (purple nutsedge; [4]): 75
- Plant response rating, Nutsedge, Purple (purple nutsedge; [5]): 0
- Plant response rating, Sandbur (southern sandbur; [3]): 90
- Plant response rating, Sandbur (southern sandbur; [4]): 80
- Plant response rating, Sandbur (southern sandbur; [5]): 20
- Plant response rating, Sandbur (southern sandbur; [6]): 70
- Plant response rating, Sandbur (southern sandbur; [7]): 80
- Plant response rating, Sandbur (southern sandbur; [8]): 80
- Plant response rating, Sandbur (southern sandbur; [9]): 50
- Plant response rating, Sandbur (southern sandbur; [10]): 20
- Plant response rating, Sowthistle (common sowthistle; [3]): 100
- Plant response rating, Sowthistle (common sowthistle; [4]): 75
- Plant response rating, Sowthistle (common sowthistle; [5]): 40
- Plant response rating, Sowthistle (common sowthistle; [6]): 60
- Plant response rating, Sowthistle (common sowthistle; [7]): 80
- Plant response rating, Sowthistle (common sowthistle; [8]): 95
- Plant response rating, Sowthistle (common sowthistle; [9]): 75
- Plant response rating, Sowthistle (common sowthistle; [10]): 75
- Plant response rating, Quackgrass (quackgrass; [3]): 95
- Plant response rating, Quackgrass (quackgrass; [4]): 90
- Plant response rating, Quackgrass (quackgrass; [5]): 20
- Plant response rating, Quackgrass (quackgrass; [6]): 60
- Plant response rating, Quackgrass (quackgrass; [7]): 75
- Plant response rating, Quackgrass (quackgrass; [8]): 90
- Plant response rating, Quackgrass (quackgrass; [9]): 70
- Plant response rating, Quackgrass (quackgrass; [10]): 50
- Plant response rating, Bindweed, Field (field bindweed; [3]): 98
- Plant response rating, Bindweed, Field (field bindweed; [4]): 95
- Plant response rating, Bindweed, Field (field bindweed; [5]): 30
- Plant response rating, Bindweed, Field (field bindweed; [6]): 80
- Plant response rating, Bindweed, Field (field bindweed; [7]): 100
- Plant response rating, Bindweed, Field (field bindweed; [8]): 100
- Plant response rating, Bindweed, Field (field bindweed; [9]): 80
- Plant response rating, Bindweed, Field (field bindweed; [10]): 50
- Plant response rating, Thistle (Russian thistle; 62 g ai/ha, scale 0 to 100): 50
- Plant response rating, Thistle (Russian thistle; 125 g ai/ha, scale 0 to 100): 50
- Plant response rating, Thistle (Russian thistle; [11]): 70

Compound: CCc1nn(C(C)(C)C)cc1C(=O)Nc1cc(C(=O)N(C)C)ccn1 [Compound 293]
- Plant response rating, Bermudagrass (bermudagrass; [6]): 90
- Plant response rating, Bermudagrass (bermudagrass; [7]): 95
- Plant response rating, Bermudagrass (bermudagrass; [12]): 95
- Plant response rating, Bermudagrass (bermudagrass; [8]): 95
- Plant response rating, Foxtail, Green (green foxtail [1]; [6]): 50
- Plant response rating, Foxtail, Green (green foxtail [1]; [7]): 95
- Plant response rating, Foxtail, Green (green foxtail [1]; [12]): 95
- Plant response rating, Foxtail, Green (green foxtail [1]; [8]): 100
- Plant response rating, Goosegrass (goosegrass; [6]): 90
- Plant response rating, Goosegrass (goosegrass; [7]): 90
- Plant response rating, Goosegrass (goosegrass; [12]): 95
- Plant response rating, Goosegrass (goosegrass; [8]): 100
- Plant response rating, Johnsongrass (johnsongrass; [6]): 10
- Plant response rating, Johnsongrass (johnsongrass; [7]): 60
- Plant response rating, Johnsongrass (johnsongrass; [12]): 70
- Plant response rating, Johnsongrass (johnsongrass; [8]): 85
- Plant response rating, Nutsedge, Purple (purple nutsedge; [7]): 40
- Plant response rating, Nutsedge, Purple (purple nutsedge; [12]): 50
- Plant response rating, Nutsedge, Purple (purple nutsedge; [8]): 60
- Plant response rating, Sandbur (southern sandbur; [6]): 10
- Plant response rating, Sandbur (southern sandbur; [7]): 100
- Plant response rating, Sandbur (southern sandbur; [12]): 100
- Plant response rating, Sandbur (southern sandbur; [8]): 100
- Plant response rating, Sowthistle (common sowthistle; [6]): 75
- Plant response rating, Sowthistle (common sowthistle; [7]): 95
- Plant response rating, Sowthistle (common sowthistle; [12]): 95
- Plant response rating, Sowthistle (common sowthistle; [8]): 100
- Plant response rating, Quackgrass (quackgrass; [6]): 70
- Plant response rating, Quackgrass (quackgrass; [7]): 80
- Plant response rating, Quackgrass (quackgrass; [12]): 95
- Plant response rating, Quackgrass (quackgrass; [8]): 95
- Plant response rating, Bindweed, Field (field bindweed; [6]): 40
- Plant response rating, Bindweed, Field (field bindweed; [7]): 60
- Plant response rating, Bindweed, Field (field bindweed; [12]): 95
- Plant response rating, Bindweed, Field (field bindweed; [8]): 95
- Plant response rating, Thistle (Russian thistle; 125 g ai/ha, scale 0 to 100): 60
- Plant response rating, Thistle (Russian thistle; 375 g ai/ha, scale 0 (no effect) to 100 (complete control)): 95
- Plant response rating, Thistle (Russian thistle; [11]): 100

Compound: CCc1nn(C(C)(C)C)nc1C(=O)Nc1cccc(C(=O)N(C)CC)c1 [Compound 384]
- Plant response rating, Foxtail, Green (green foxtail [2]; Postemergence, 250 g ai/ha, scale 0 to 100, 0 no effect, 100 complete control): 65
- Plant response rating, Foxtail, Green (green foxtail [2]; [9]): 60
- Plant response rating, Foxtail, Green (green foxtail [2]; [10]): 60
- Plant response rating, Wheat (wheat; 125 g ai/ha): 20
- Plant response rating, Wheat (wheat; 62 g ai/ha): 10
- Plant response rating, Beggarticks, Bip. (bipinnate beggarticks; 62 g ai/ha, scale 0 to 100): 10
- Plant response rating, Beggarticks, Bip. (bipinnate beggarticks; 250 g ai/ha, scale 0 (no effect) to 100 (complete control)): 100
- Plant response rating, Bermudagrass (bermudagrass; [5]): 80
- Plant response rating, Bermudagrass (bermudagrass; [6]): 95
- Plant response rating, Bermudagrass (bermudagrass; [7]): 95
- Plant response rating, Bermudagrass (bermudagrass; [8]): 95
- Plant response rating, Foxtail, Green (green foxtail [1]; [5]): 10
- Plant response rating, Foxtail, Green (green foxtail [1]; [7]): 40
- Plant response rating, Foxtail, Green (green foxtail [1]; [8]): 95
- Plant response rating, Goosegrass (goosegrass; [5]): 60
- Plant response rating, Goosegrass (goosegrass; [6]): 80
- Plant response rating, Goosegrass (goosegrass; [7]): 85
- Plant response rating, Goosegrass (goosegrass; [8]): 95
- Plant response rating, Johnsongrass (johnsongrass; [5]): 40
- Plant response rating, Johnsongrass (johnsongrass; [6]): 75
- Plant response rating, Johnsongrass (johnsongrass; [7]): 80
- Plant response rating, Johnsongrass (johnsongrass; [8]): 85
- Plant response rating, Nutsedge, Purple (purple nutsedge; [5]): 60
- Plant response rating, Sandbur (southern sandbur; [5]): 10
- Plant response rating, Sandbur (southern sandbur; [6]): 60
- Plant response rating, Sandbur (southern sandbur; [7]): 70
- Plant response rating, Sandbur (southern sandbur; [8]): 100
- Plant response rating, Quackgrass (quackgrass; [5]): 50
- Plant response rating, Quackgrass (quackgrass; [6]): 70
- Plant response rating, Quackgrass (quackgrass; [7]): 85
- Plant response rating, Quackgrass (quackgrass; [8]): 85
- Plant response rating, Bindweed, Field (field bindweed; [5]): 80
- Plant response rating, Bindweed, Field (field bindweed; [7]): 80
- Plant response rating, Bindweed, Field (field bindweed; [8]): 95
